From patent US20080113946A1, “N-aryl-5,7-dihydrofuro[3,4-d]pyrimidin-4-amines and analogs as activators of caspases and inducers of apoptosis and the use thereof” (Cyntovia, Inc., priority 2006, published 2008)

Experiments:
Format in all cases: cell-based
[1] = tested on: Human breast cancer cell line T-47D; assay: Caspase cascade activation (Ac-DEVD-R110 fluorogenic substrate) in T-47D cells; conditions: T47D, T-47D, incubated 24 or 48 h (Table I), 0.016 to 10 μM final, read-out: Caspase Activation Potency EC50 T-47D
Procedure: (§1) Human breast cancer cell line T-47D, human hepatocellular carcinoma cell line SNU398 and human colon carcinoma cell line HCT116 were grown according to media component mixtures designated by American Type Culture Collection+10% FCS (Invitrogen Corporation), in a 5% CO2-95% humidity incubator at 37° C. T-47D and H1299 cells were maintained at a cell density between 50 and 80% confluency at a cell density of 0.1 to 0.6×10^6 cells/mL. Cells were harvested at 600×g and resuspended at 0.65×10^6 cells/mL into appropriate media+10% FCS. An aliquot of 22.5 μL of cells was added to a well of a 384-well microtiter plate containing 2.5 μL of a 10% DMSO in RPMI-1640 media solution containing 0.16 to 100 μM of 5,7-dihydro-N-(3,5-dimethoxyphenyl)-2-(methylthio)furo[3,4-d]pyrimidin-4-amine or other test compound (0.016 to 10 μM final). An aliquot of 22.5 μL of cells was added to a well of a 384-well microtiter plate containing 2.5 μL of a 10% DMSO in RPMI-1640 media solution without test compound as the control sample. The samples were mixed by agitation and then incubated at 37° C. for 24 or 48 h in a 5% CO2-95% humidity incubator. After incubation, the samples were removed from the incubator and 25 μL of a solution containing 14 μM of N-(Ac-DEVD)-N′-ethoxycarbonyl-R110 (SEQ ID No.:1) fluorogenic substrate (Cytovia, Inc.; WO99/18856), 20% sucrose (Sigma), 20 mM DTT (Sigma), 200 mM NaCl (Sigma), 40 mM Na PIPES buffer pH 7.2 (Sigma), and 500 µg/mL lysolecithin (Calbiochem) was added. The samples were mixed by agitation and incubated at room temperature. Using a fluorescent plate reader (Model SPECTRAfluor Plus, Tecan), an initial reading (T=0) was made approximately 1-2 min after addition of the substrate solution, employing excitation at 485 nm and emission at 530 nm, to determine the background fluorescence of the control sample. After the 3 h incubation, the samples were read for fluorescence as above (T=3 h).
(§2) The Relative Fluorescence Unit values (RFU) were used to calculate the sample readings as follows: RFU(T=3h)−Control RFU(T=0)=Net RFU(T=3h)
(§3) The activity of caspase cascade activation was determined by the ratio of the net RFU value for 5,7-dihydro-N-(3,5-dimethoxyphenyl)-2-(methylthio)furo[3,4-d]pyrimidin-4-amino or other test compound to that of control samples. The EC50 (nM) was determined by a sigmoidal dose-response calculation (Prism 3.0, GraphPad Software Inc.).

[2] = tested on: human colon carcinoma cell line HCT116; assay: Caspase cascade activation (Ac-DEVD-R110 fluorogenic substrate) in HCT116 cells; conditions: HCT-116, incubated 24 or 48 h (Table I), 0.016 to 10 μM final, read-out: Caspase Activation Potency EC50 HCT116
Procedure: as §1, §2, §3

[3] = tested on: human hepatocellular carcinoma cell line SNU398; assay: Caspase cascade activation (Ac-DEVD-R110 fluorogenic substrate) in SNU398 cells; conditions: SNU-398, incubated 24 or 48 h (Table I), 0.016 to 10 μM final, read-out: Caspase Activation Potency EC50 SNU398
Procedure: as §1, §2, §3

Row | EC50 [1] [µM] | EC50 [2] [µM] | EC50 [3] [µM] | Structure (SMILES)
1 | > 10 | > 10 | > 10 | CSc1nc2c(c(Nc3cccc(Br)c3)n1)CCC2 [Example 19, N-(3-Bromophenyl)-6,7-dihydro-2-(methylthio)-5H-cyclopenta[d]pyrimidin-4-amine]
2 | > 10 | ≥ 10.6 | 2.69 | CSc1nc2c(c(Nc3cc(C)n[nH]3)n1)CCC2 [Example 20, 6,7-Dihydro-N-(5-methyl-1H-pyrazol-3-yl)-2-(methylthio)-5H-cyclopenta[d]pyrimidin-4-amine]
3 | 0.063 | > 10 | 2.56 | COc1cc(Nc2nc(SC)nc3c2CCC3)cc(OC)c1 [Example 21, 6,7-Dihydro-N-(3,5-dimethoxyphenyl)-2-(methylthio)-5H-cyclopenta[d]pyrimidin-4-amine]
4 | > 10 | > 10 | > 10 | CSc1nc2c(c(Nc3ccc(NC(=O)c4ccccc4)cc3)n1)CCC2 [Example 22, N-(4-(6,7-Dihydro-2-(methylthio)-5H-cyclopenta[d]pyrimidin-4-ylamino)phenyl)benzamide]
5 | > 10 | > 10 | > 10 | O=C(Nc1ccc(Nc2ncnc3c2CCC3)cc1)c1ccccc1 [Example 26, N-(4-(6,7-Dihydro-5H-cyclopenta[d]pyrimidin-4-ylamino)phenyl)benzamide]
6 | > 10 | > 10 | > 10 | Cc1cc(Nc2nc(N3CCN(C)CC3)nc3c2CNC3)[nH]n1 [Example 28, [2-(4-Methyl-piperazin-1-yl)-6,7-dihydro-5H-pyrrolo[3,4-d]pyrimidin-4-yl]-(5-methyl-2H-pyrazol-3-yl)-amine]
7 | > 10 | > 10 | > 10 | O=C(Nc1ccc(Sc2nc(Cl)nc3c2CN(C(=O)OCC2c4ccccc4-c4ccccc42)C3)cc1)C1CC1 [Example 29, (9H-Fluoren-9-yl)methyl 2-chloro-4-((4-(cyclopropanecarboxamido)phenyl)sulfanyl)-5H-pyrrolo[3,4-d]pyrimidine-6(7H)-carboxylate]
8 | 1.57 | > 10 | > 10 | COc1cc(Nc2nc(Cl)nc3c2CN(C(=O)OCC2c4ccccc4-c4ccccc42)C3)cc(N(C)C)c1 [Example 30, (9H-Fluoren-9-yl)methyl 4-(3-(dimethylamino)-5-methoxyphenylamino)-2-chloro-5H-pyrrolo[3,4-d]pyrimidine-6(7H)-carboxylate]
9 | > 10 | > 10 | 5 | COc1ccc(N(C)c2nc(Cl)nc3c2CN(C(=O)OCC2c4ccccc4-c4ccccc42)C3)cc1 [Example 31, (9H-Fluoren-9-yl)methyl 4-(N-(4-methoxyphenyl)-N-methylamino)-2-chloro-5H-pyrrolo[3,4-d]pyrimidine-6(7H)-carboxylate]
10 | > 10 | > 10 | > 10 | Cc1cc(Nc2nc(N3CCN(C)CC3)nc3c2COC3)[nH]n1 [Example 32, 5,7-Dihydro-N-(3-methyl-1H-pyrazol-5-yl)-2-(4-methylpiperazin-1-yl)furo[3,4-d]pyrimidin-4-amine]

Further lines, the compound ahead of its results:

Row | Structure (SMILES) | EC50 [1] [µM] | EC50 [2] [µM] | EC50 [3] [µM]
11 | COc1ccc(N(C)c2nc(SC)nc3c2COC3)cc1 [Example 8, 5,7-Dihydro-N-(4-methoxyphenyl)-N-methyl-2-(methylthio)furo[3,4-d]pyrimidin-4-amine] | 3.19 | 5.15 | 2.56
12 | COc1cc(Nc2ncnc3c2COC3)cc(OC)c1 [Example 9, 5,7-Dihydro-N-(3,5-dimethoxyphenyl)-furo[3,4-d]pyrimidin-4-amine] | 1.19 | > 10 | > 10
13 | Cc1nc2c(c(Nc3cccc(Br)c3)n1)COC2 [Example 10, 5,7-Dihydro-N-(3-bromophenyl)-2-methylfuro[3,4-d]pyrimidin-4-amine] | > 10 | > 10 | > 10
14 | COc1cc(Nc2nc(C)nc3c2COC3)cc(OC)c1 [Example 11, 5,7-Dihydro-N-(3,5-dimethoxyphenyl)-2-methylfuro[3,4-d]pyrimidin-4-amine] | 1.29 | > 10 | > 10
15 | CSc1nc2c(c(Nc3cc(C)n[nH]3)n1)COC2 [Example 12, 5,7-Dihydro-N-(3-methyl-1H-pyrazol-5-yl)-2-(methylthio)furo[3,4-d]pyrimidin-4-amine] | > 10 | > 10 | > 10
16 | Cc1cc(Nc2nc(S(C)(=O)=O)nc3c2COC3)[nH]n1 [Example 13, 5,7-Dihydro-N-(3-methyl-1H-pyrazol-5-yl)-2-(methylsulfonyl)furo[3,4-d]pyrimidin-4-amine] | > 10 | > 10 | > 10
17 | Cc1cc(Nc2nc(Sc3ccc(NC(=O)C4CC4)cc3)nc3c2COC3)[nH]n1 [Example 14, N-(4-(4-(3-Methyl-1H-pyrazol-5-ylamino)-5,7-dihydrofuro[3,4-d]pyrimidin-2-ylthio)phenyl)cyclopropanecarboxamide] | 2.74 | 2.42 | 1.36
18 | CS(=O)(=O)c1nc2c(c(Sc3ccc(NC(=O)C4CC4)cc3)n1)COC2 [Example 15, N-(4-(5,7-Dihydro-2-(methylsulfonyl)furo[3,4-d]pyrimidin-4-ylthio)phenyl)cyclopropanecarboxamide] | 14.1 | ≥ 14.2 | 9.07
19 | Cc1cc(Nc2nc3c(c(Sc4ccc(NC(=O)C5CC5)cc4)n2)COC3)[nH]n1 [Example 16, N-(4-(2-(3-Methyl-1H-pyrazol-5-ylamino)-5,7-dihydrofuro[3,4-d]pyrimidin-4-ylthio)phenyl)cyclopropanecarboxamide] | > 10 | > 10 | > 10
20 | Cc1cc(Nc2nc(Cl)nc3c2CN(C(=O)OCC2c4ccccc4-c4ccccc42)C3)[nH]n1 [Example 17, (9H-Fluoren-9-yl)methyl 4-(3-methyl-1H-pyrazol-5-ylamino)-2-chloro-5H-pyrrolo[3,4-d]pyrimidine-6(7H)-carboxylate] | > 10 | > 10 | > 10
